Measured values: patent publication US8658677B2, “Pyridyl-2-methylamino compounds, compositions and uses thereof” (Aria Neurosciences Inc., priority 2011, dated 2014)

What was measured:
[1] = test system: SK-N-SH human neuroblastoma cells; test: Toxicity by MTT cell viability and LDH release assays; type: cell-based
Experimental: The effect of 0.01-100 μmol/L concentrations of investigational compounds was tested on the viability of the N2a murine neuroblastoma cell line (American Type Culture Collection, Manassas, Va.). N2a cells were grown in Eagle's minimal essential medium with the addition of 10% fetal bovine serum, streptomycin and gentomycin (Sigma, St. Louis, Mo.), harvested with 2% trypsin and plated at 10,000 cells/100 μL per well in flatbottom, 96-well microtiter plates. The cells were allowed to attach to the plate overnight in an incubator (37° C., 5% CO2) and in the following morning stocks of investigational compounds (50 mmol/L stock diluted in DMSO) were added to cells to achieve the final concentration 0.01-100 μmol/L. Adequate amounts of DMSO (Dimethyl sulfoxide, Sigma, St. Louis, Mo.) were added to control cells. Cells were grown in the presence of investigational compounds for 48 h and then their viability was assessed using a metabolic assay, which is based on cleavage of the yellow tetrazolium salt (MTT) to purple formazan crystals by viable cells. The MTT assay (Roche Molecular Biochemicals, Indianapolis, Ind.) was performed according to the manufacturer's instructions. The results from cell culture neurotoxicity studies were evaluated by one-way analysis of variance, followed by a Dunnett's test as a post hoc analysis.
As shown in FIG. 2 (MTT assay), the compounds were tested for toxicity in SK-N-SH human neuroblastoma cells using MTT cell viability and LDH release (membrane integrity) assays.

Aβ42 = test: Secretion of Aβ42 by 751APPSW CHO cells (sandwich ELISA); type: cell-based; settings: 48 hr; for Emax: read-out: EMAX of Aβ42 production inhibition; for IC50: read-out: IC50% of Aβ42 production
Experimental: (§1) In addition to studying the effect of ARN4261 and ARN2966 on Aβ oligomerization and fibrillization, we have explored their properties in respect to the modulation of Aβ production using CHO clones stably transfected with WT human APP751 and double Swedish APP751 mutant (KM670/671NL). The results in FIGS. 3(A) and 3(B) show inhibitory effect of ARN4261 and ARN2966 on secretion of Aβ40 and Aβ42 by 751APPSW CHO cells exposed to ARN compounds for 48 hr. Values are expressed as % of Aβ40 and Aβ42 levels in conditioned media (CM) of untreated cells. FIG. 3(C) Concentrations of Aβ40 and Aβ42 in 751APPSWCHO cell CM under increasing concentrations of ARN2966. 751APPSWCHO cells secrete Aβ40 and Aβ42 in proportions 9:1, akin to the proportions of Aβ peptides produced by neurons. […] Aβ40 and Aβ42 levels were determined using sandwich ELISA where C-terminal specific anti Aβ40 and Aβ42 mAbs were used as capture Abs and biotinylated 4G8 as the detection Ab. […] We also confirmed that ARN2966 inhibited secretion of Aβ by primary neuronal cultures derived from Tg2576 AD Tg mice.

Aβ40 = Aβ40 secretion by primary hippocampal neurons derived from Tg2576 AD Tg mice; type: cell-based; settings: 10 μM, primary neuronal cultures from Tg2576 mice
Experimental: as §1

APP = test: 35S-Methionine pulse labeling of APP in 751APPSW CHO cells; type: cell-based, human
Experimental: D. APP was immunoprecipitated with 22C11 mAb against its N-terminus. Representative radiographs (B) and densitometric results averaged from three independent experiments are shown (A). […] Two sets of experiments were conducted using either actin or GAPDH as housekeeping genes.

M17 neuroblastoma cells = test: Rescue of M17 neuroblastoma cells from death induced by MPP+ and H2O2 (MTT); type: cell-based
Text: Cell viability was detected by MTT assay.

Aβ plaques = test: Aβ plaque load and brain Aβ level after chronic treatment; type: in vivo, mice
Experimental: Female APPSW/PS1dE9 AD double transgenic (Tg) mice received daily intraperitoneal injections of ARN2966 (50 mg/kg) starting from the age of six months until the age of 10 months.
Following the course of ARN2966 treatment, animals were sacrificed, and the load of Thioflavin-S (Th-S) stained Aβ plaques (% of histological section area covered by plaques) was quantified in the brain cortex on serial coronal sections through the rostrocaudal axis of the right hemisphere as described by us [Sadowski 2004]. The left hemisphere was homogenized (1:10 weight/volume), and aliquots of the homogenate were used to measure the level of Aβ oligomers (Aggregated β-Amyloid ELISA Kit, [Invitrogen]) or subjected to formic acid (FA) extraction to determine total Aβ40 and Aβ42 brain levels via sandwich ELISAs discriminating C-terminal configuration of both peptides as described by us [Sadowski 2006]. […] Levels of FA extracted Aβ40 and Aβ42 were reduced by 82% (p<0.001) and 56% (p<0.001; FIG. 6C).
FIGS. 6.(A, B) ARN2966 treatment reduces load of Aβ plaques (n=10 ARN2966, n=15 Vehicle). (B) Representative photomicrograph of Th-S stained brain sections from vehicle and ARN2966 treated 10 month old, female APPSW/PS1dE9reveal a difference in the load of Aβ plaques. […] (D) Reduced Aβ40 and Aβ42 levels in FA extracted brain homogenate, which represent the total brain content of Aβ peptides in ARN2966 treated animals (ELISA). (E) Reduced soluble Aβ40 level in DEA extracted brain homogenate, of ARN2966 and Compound E treated mice (ELISA). […] Aβ concentrations in (C) (D) and (E) are given per gram of wet brain. All values are given as mean±SEM. Statistical analysis was done using two-tailed unpaired t-test, following confirmation of normal distribution of data using Shapiro-Wilk test.

[2] = 50 mg/kg/day ip, age six to ten months, ELISA

| Structure (SMILES) | toxicity ([1]; 0.1-100 μM) | Emax (Aβ42) | IC50 (Aβ42) | lowering of Aβ40 concentration in the conditioned media (Aβ40) | toxicity ([1]; test not specified) | reduction of translation of APP (APP; 25 μM, 2 h 35S-Methionine pulse) | incorporation of 35S-Methionine by APP during translation (APP; 751APPSW CHO cells) | translation of β-actin (APP; 751APPSW CHO cells) | cell morphology by phase contrast microscopy (M17 neuroblastoma cells) | rescue of cell death induced by H2O2 (M17 neuroblastoma cells; 300 μM H2O2, increasing concentrations, MTT) | rescue of cell death induced by MPP+ (M17 neuroblastoma cells; 0.5 mM MPP+, increasing concentrations, MTT) | reduction in the Aβ load (unbiased quantification, Thioflavin-S) (Aβ plaques; 50 mg/kg daily ip, age six to 10 months) | reduction of load of Th-S positive plaques in the brain cortex (Aβ plaques; 50 mg/kg/day ip, age six to ten months) | reduction of FA extracted Aβ40 brain level (Aβ plaques; [2]) | reduction of FA extracted Aβ42 brain level (Aβ plaques; [2]) | reduction of level of Aβ oligomers in brain homogenate (Aβ plaques; [2]) |
| --- | --- | --- | --- | --- | --- | --- | --- | --- | --- | --- | --- | --- | --- | --- | --- | --- |
| Oc1ccccc1N=Cc1ccccn1 [ARN4261, 2-(Pyridin-2-ylmethyleneamino)-phenol] | no toxicity | 98.9 ± 0.4% | 6.54 µM |  |  |  |  |  |  |  |  |  |  |  |  |  |
| Oc1ccccc1NCc1ccccn1 [ARN2966, 2-[(pyridine-2-ylmethyl)-amino]-phenol] |  | 84.5% | 5.53 µM | 61.4% | not toxic | 61.5% | significantly reduced incorporation of 35S-Methionine by APP | remained unaltered | restored normal cell morphology | rescue M17 neuroblastoma cell death | rescue M17 neuroblastoma cell death | 25.8% | 21.9% | 82% | 56% | 20.5% |
